Assays:
[1] = biological target: T1, hEP4/Gqs5 (Homo sapiens, UniProt P35408); test: FLIPR calcium signal, hEP4; format: cell-based; conditions: Table 3, third part
T1 construct: expressed in transfected cells; host or cells: HEK-293(EBNA)
Method in brief: (§1)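 HEK-293(EBNA) cells stably expressing each human prostanoid receptor (EP2 and EP3A coupled via Gqs5/Gqi5 chimeras) were loaded with Fluo-4 AM, and peak calcium fluorescence was measured on FLIPR at 37° C. Compounds were tested at 10^−5 M or from 10^−11 to 10^−5 M in duplicate, n≥3, with response expressed relative to buffer and standard agonist controls.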

[2] = biological target: T2, hEP1 (Homo sapiens, UniProt P34995); test: FLIPR calcium signal, hEP1; format: cell-based; conditions: Table 3, third part
T2 construct: expressed in transfected cells; host or cells: HEK-293(EBNA)
T2 sequence (P34995 1-402): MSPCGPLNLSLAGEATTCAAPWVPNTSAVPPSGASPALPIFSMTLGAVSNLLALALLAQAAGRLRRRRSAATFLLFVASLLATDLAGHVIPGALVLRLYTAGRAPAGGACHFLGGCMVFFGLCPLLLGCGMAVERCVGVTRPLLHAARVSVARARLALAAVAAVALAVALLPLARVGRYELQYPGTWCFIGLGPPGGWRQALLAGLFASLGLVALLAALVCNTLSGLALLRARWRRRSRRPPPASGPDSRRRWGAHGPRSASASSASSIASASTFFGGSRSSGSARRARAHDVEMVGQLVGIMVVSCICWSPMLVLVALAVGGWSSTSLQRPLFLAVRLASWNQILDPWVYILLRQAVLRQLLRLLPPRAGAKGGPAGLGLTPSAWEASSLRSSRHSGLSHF
Procedure: (§2) HEK-293(EBNA) cells, stably expressing one type or subtype of recombinant human prostaglandin receptors (prostaglandin receptors expressed: hDP/Gqs5; hEP1; hEP2/Gqs5; hEP3A/Gqi5; hEP4/Gqs5; hFP; hIP; hTP), were cultured in 100 mm culture dishes in high-glucose DMEM medium containing 10% fetal bovine serum, 2 mM 1-glutamine, 250 μg/ml geneticin (G418) and 200 μg/ml hygromycin B as selection markers, and 100 units/ml penicillin G, 100 μg/ml streptomycin and 0.25 μg/ml amphotericin B. • (b) Calcium Signal Studies on the FLIPR™
(§3) Cells were seeded at a density of 5×10^4 cells per well in Biocoat® Poly-D-lysine-coated black-wall, clear-bottom 96-well plates (Becton-Dickinson) and allowed to attach overnight in an incubator at 37° C. Cells were then washed two times with HBSS-HEPES buffer (Hanks Balanced Salt Solution without bicarbonate and phenol red, 20 mM HEPES, pH 7.4) using a Denley Cellwash plate washer (Labsystems). After 45 minutes of dye-loading in the dark, using the calcium-sensitive dye Fluo-4 AM at a final concentration of 2 μM, plates were washed four times with HBSS-HEPES buffer to remove excess dye leaving 100 μl in each well. Plates were re-equilibrated to 37° C. for a few minutes.
(§4) Cells were excited with an Argon laser at 488 nm, and emission was measured through a 510-570 nm bandwidth emission filter (FLIPR™, Molecular Devices, Sunnyvale, Calif.). Drug solution was added in a 50 μl volume to each well to give the desired final concentration. The peak increase in fluorescence intensity was recorded for each well. On each plate, four wells each served as negative (HBSS-HEPES buffer) and positive controls (standard agonists: BW245C (hDP); PGE2 (hEP1; hEP2/Gqs5; hEP3A/Gqi5; hEP4/Gqs5); PGF2α (hFP); carbacyclin (hIP); U-46619 (hTP), depending on receptor). The peak fluorescence change in each drug-containing well was then expressed relative to the controls.
(§5) Compounds were tested in a high-throughput (HTS) or concentration-response (CoRe) format. In the HTS format, forty-four compounds per plate were examined in duplicates at a concentration of 10^−5 M. To generate concentration-response curves, four compounds per plate were tested in duplicates in a concentration range between 10^−5 and 10^−11 M. The duplicate values were averaged. In either, HTS or CoRe format each compound was tested on at least 3 separate plates using cells from different passages to give an n≧3.

[3] = biological target: T3, hTP (Homo sapiens, UniProt P21731); test: FLIPR calcium signal, hTP; format: cell-based; conditions: Table 3, third part
T3 construct: expressed in transfected cells; host or cells: HEK-293(EBNA)
T3 sequence (P21731 1-343): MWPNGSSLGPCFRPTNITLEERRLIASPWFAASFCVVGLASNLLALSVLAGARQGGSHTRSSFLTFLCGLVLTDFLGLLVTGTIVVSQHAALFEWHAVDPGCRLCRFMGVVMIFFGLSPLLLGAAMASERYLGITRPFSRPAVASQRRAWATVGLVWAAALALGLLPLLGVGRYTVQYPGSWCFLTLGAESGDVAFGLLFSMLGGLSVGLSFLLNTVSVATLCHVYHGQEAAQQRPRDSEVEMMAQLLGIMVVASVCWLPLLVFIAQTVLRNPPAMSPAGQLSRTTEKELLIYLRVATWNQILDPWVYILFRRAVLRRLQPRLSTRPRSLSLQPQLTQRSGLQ
Procedure: as §2, §3, §4, §5

[4] = biological target: T4, hFP (Homo sapiens, UniProt P43088); test: FLIPR calcium signal, hFP; format: cell-based; conditions: Table 3, third part
T4 construct: expressed in transfected cells; host or cells: HEK-293(EBNA)
T4 sequence (P43088 whole entry): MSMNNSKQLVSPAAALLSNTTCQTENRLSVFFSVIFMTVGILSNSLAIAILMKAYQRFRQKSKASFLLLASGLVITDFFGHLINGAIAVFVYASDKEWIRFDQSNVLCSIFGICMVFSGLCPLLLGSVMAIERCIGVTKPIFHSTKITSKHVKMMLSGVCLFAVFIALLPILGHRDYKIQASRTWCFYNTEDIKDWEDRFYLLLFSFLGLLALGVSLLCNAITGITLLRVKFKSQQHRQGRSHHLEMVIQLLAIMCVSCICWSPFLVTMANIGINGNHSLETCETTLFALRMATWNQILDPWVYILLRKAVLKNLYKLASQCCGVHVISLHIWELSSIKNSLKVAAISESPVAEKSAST
Procedure: as §2, §3, §4
Compounds were tested in a high-throughput (HTS) or concentration-response (CoRe) format. […]

[5] = biological target: T5, hIP (Homo sapiens, UniProt P43119); test: FLIPR calcium signal, hIP; format: cell-based; conditions: Table 3, third part
T5 construct: expressed in transfected cells; host or cells: HEK-293(EBNA)
T5 sequence (P43119 whole entry): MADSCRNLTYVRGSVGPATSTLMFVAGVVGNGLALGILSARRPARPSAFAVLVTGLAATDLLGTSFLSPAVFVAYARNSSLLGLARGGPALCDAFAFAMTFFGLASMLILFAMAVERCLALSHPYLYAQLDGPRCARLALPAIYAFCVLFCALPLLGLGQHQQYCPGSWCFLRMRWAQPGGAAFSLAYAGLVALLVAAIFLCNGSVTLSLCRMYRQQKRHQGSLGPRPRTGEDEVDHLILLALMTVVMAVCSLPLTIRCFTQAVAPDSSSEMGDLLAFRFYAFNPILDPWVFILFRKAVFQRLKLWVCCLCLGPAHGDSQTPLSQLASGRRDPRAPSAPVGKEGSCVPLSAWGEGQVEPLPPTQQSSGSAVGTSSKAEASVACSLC
Procedure: as §2, §3, §4, §5

[6] = biological target: T6, HEP3 (Homo sapiens, UniProt P43115); test: Radioligand binding, EP3; conditions: printed in the HEP3 binding column; read-out: Ki (marked "Ki" in BINDING HEP3)
T6 sequence (P43115 1-390): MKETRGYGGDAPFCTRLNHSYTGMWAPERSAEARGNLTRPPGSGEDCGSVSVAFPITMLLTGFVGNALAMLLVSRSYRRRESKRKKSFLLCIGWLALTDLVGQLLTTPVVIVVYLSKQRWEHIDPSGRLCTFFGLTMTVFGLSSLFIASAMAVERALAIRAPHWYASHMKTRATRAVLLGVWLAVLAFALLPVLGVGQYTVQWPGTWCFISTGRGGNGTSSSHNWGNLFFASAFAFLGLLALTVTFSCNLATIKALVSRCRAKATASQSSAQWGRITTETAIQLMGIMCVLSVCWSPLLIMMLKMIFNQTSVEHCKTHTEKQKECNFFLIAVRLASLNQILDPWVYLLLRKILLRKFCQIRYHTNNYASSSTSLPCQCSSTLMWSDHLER

[7] = biological target: T7, hEP2/Gqs5 (Homo sapiens, UniProt P43116); test: FLIPR calcium signal, hEP2; format: cell-based; conditions: FLIPR Ca2+ signal, HEK-293(EBNA); read-out: FUNCTIONAL EC50 HEP2
T7 construct: expressed in transfected cells; host or cells: HEK-293(EBNA)
T7 sequence (P43116 whole entry): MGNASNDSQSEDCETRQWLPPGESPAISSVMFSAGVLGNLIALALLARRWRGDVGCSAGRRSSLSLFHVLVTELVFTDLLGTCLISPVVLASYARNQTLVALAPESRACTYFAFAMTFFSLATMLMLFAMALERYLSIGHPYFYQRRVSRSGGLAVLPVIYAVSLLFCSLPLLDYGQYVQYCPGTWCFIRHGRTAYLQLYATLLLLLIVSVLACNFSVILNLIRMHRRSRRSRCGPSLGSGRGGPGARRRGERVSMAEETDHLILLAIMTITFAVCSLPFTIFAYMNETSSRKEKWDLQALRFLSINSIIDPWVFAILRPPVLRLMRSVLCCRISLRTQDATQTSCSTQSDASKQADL
Method in brief: as §1

[8] = system: rabbits; test: Ocular surface hyperemia, rabbits; format: in vivo; conditions: score
Procedure: (§6) Ocular surface hyperemia was visually assessed and scored according to a system typically used clinically.
(§7) Ocular surface hyperemia was evaluated at the same time points as intraocular pressure measurement. It should be noted that untreated dog eyes frequently have a pink/red tone. Thus, values of trace or even mild are not necessarily out of the normal range. Similar tests were used to determine ocular surface hyperemia on monkeys and rabbits.

[9] = system: monkeys; test: Intraocular pressure (IOP) in monkeys; format: in vivo
[10] = system: Beagle dogs; test: Ocular surface hyperemia, dogs; format: in vivo; conditions: score
Procedure: as §6, §7

[11] = system: Beagle dogs; test: Intraocular pressure (IOP) in dogs, pneumatonometry; format: in vivo; conditions: topical
Procedure: (§8) Intraocular pressure studies in dogs involved pneumatonometry performed in conscious, Beagle dogs of both sexes (10-15 kg). The animals remained conscious throughout the study and were gently restrained by hand. Drugs were administered topically to one eye as a 25 μL volume drop, the other eye received 25 μL vehicle (0.1% (w/v) polysorbate 80; 10 mM TRIS) as a control. Proparacaine (0.1% w/v) was used for corneal anesthesia during tonometry. Intraocular pressure was determined just before drug administration and at 2, 4 and 6 hr thereafter on each day of the 5 day study. Drug was administered immediately after the first IOP reading.
as §8, with “(0.1%” for “(0.1% (w/v)”, “80:10” for “80; 10”, “(0.1%)” for “(0.1% w/v)”

T1 sequence (P35408 whole entry): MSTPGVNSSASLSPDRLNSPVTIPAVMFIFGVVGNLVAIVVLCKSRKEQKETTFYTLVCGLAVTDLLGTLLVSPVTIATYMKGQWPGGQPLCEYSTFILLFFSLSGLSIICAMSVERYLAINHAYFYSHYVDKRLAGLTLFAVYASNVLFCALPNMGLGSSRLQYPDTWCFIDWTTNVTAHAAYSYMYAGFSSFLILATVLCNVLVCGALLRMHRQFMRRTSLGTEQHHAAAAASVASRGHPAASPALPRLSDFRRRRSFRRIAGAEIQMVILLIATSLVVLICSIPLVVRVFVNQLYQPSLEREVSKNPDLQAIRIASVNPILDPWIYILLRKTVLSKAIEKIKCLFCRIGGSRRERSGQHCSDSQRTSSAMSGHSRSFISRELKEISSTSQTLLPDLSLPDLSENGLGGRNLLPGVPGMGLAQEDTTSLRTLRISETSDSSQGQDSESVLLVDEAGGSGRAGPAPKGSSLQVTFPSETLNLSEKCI

CCCCCC(O)c1ccc([C@@H]2[C@@H](C/C=C\CCCC(=O)O)[C@H](Cl)C[C@H]2Cl)cc1 (stereo partly shown)
Ca2+ Signal-EC50 (nM) EP4 [1]: not active | Ca2+ Signal-EC50 (nM) EP1 [2]: not active | Ca2+ Signal-EC50 (nM) TP [3]: not active | Ca2+ Signal-EC50 (nM) FP [4]: not active | Ca2+ Signal-EC50 (nM) IP [5]: not active

CC(C)C(O)c1ccc([C@@H]2[C@@H](C/C=C\CCCC(=O)O)[C@H](Cl)C[C@H]2O)cc1 (stereo partly shown)
Ki [6]: 1340 nM | EC50 [7]: 497 nM

CCCCCC(=O)c1ccc([C@@H]2[C@@H](C/C=C\CCCC(=O)OC(C)C)[C@H](Cl)C[C@H]2O)cc1
RABBIT Max. hyperemia ([8]; Conc. 0.10% (0.1%) g/100 mL): 0 | MONKEY Max. ΔIOP (mm Hg) ([9]; Conc. 0.10% (0.1%) g/100 mL): 20 mm Hg | DOG Max. hyperemia ([10]; Conc. 0.10% (0.1%) g/100 mL): 0.8

CC(C)OC(=O)CCC/C=C\C[C@@H]1[C@@H](c2ccc3c(c2)CCC3O)[C@H](O)C[C@H]1Cl (stereo partly shown)
RABBIT Max. hyperemia ([8]; Conc. 0.10% (0.1%) g/100 mL): 0.25 | DOG Max. ΔIOP (mm Hg) ([11]; Conc. 0.10% (0.1%) g/100 mL): −12 mm Hg

CC(C)(C)c1ccc([C@@H]2[C@@H](CCCCCCC(=O)O)[C@H](Cl)C[C@H]2O)cc1 [drawing 237]
RABBIT Max. hyperemia ([8]; Conc. 0.10% (0.1%) g/100 mL): 0 | DOG Max. hyperemia ([10]; Conc. 0.10% (0.1%) g/100 mL): 0.9 | DOG Max. ΔIOP (mm Hg) ([11]; Conc. 0.10% (0.1%) g/100 mL): −4 mm Hg

CCCCCC(O)c1ccc([C@@H]2[C@@H](C/C=C\CCCC(=O)O)[C@H](Cl)C[C@@H]2Cl)cc1 (stereo partly shown)
EC50 ([1]; read-out: Ca2+ Signal-EC50 (nM) EP4): 10000 nM | Ca2+ Signal-EC50 (nM) EP1 [2]: not active | Ca2+ Signal-EC50 (nM) TP [3]: not active | Ca2+ Signal-EC50 (nM) FP [4]: not active | Ca2+ Signal-EC50 (nM) IP [5]: not active

CC(C)OC(=O)CCCCCC[C@@H]1[C@@H](c2ccc(C(C)(C)C)cc2)[C@H](O)C[C@H]1Cl
RABBIT Max. hyperemia ([8]; Conc. 0.01% g/100 mL): 0.1 | MONKEY Max. ΔIOP (mm Hg) ([9]; Conc. 0.01% g/100 mL): 8 mm Hg

CC(C)OC(=O)CCC/C=C\C[C@@H]1[C@@H](c2ccc(C(O)C3CCCCC3)cc2)[C@H](O)C[C@H]1Cl (stereo partly shown)
MONKEY Max. ΔIOP (mm Hg) ([9]; Conc. 0.01% g/100 mL): 5 mm Hg | DOG Max. hyperemia ([10]; Conc. 0.01% g/100 mL): 0.6 | DOG Max. ΔIOP (mm Hg) ([11]; Conc. 0.01% g/100 mL): −4 mm Hg

— patent US7799821B2, “Therapeutic compounds” (Allergan, Inc., priority 2004, dated 2010)
